In experiment [1] the target is T1, Stromelysin-1 (Homo sapiens, UniProt P08254). The experiment in a line: (§1) Binding affinity for human Matrix metalloprotease-3.
Target sequence in this assay (P08254 100-477 limits assumed): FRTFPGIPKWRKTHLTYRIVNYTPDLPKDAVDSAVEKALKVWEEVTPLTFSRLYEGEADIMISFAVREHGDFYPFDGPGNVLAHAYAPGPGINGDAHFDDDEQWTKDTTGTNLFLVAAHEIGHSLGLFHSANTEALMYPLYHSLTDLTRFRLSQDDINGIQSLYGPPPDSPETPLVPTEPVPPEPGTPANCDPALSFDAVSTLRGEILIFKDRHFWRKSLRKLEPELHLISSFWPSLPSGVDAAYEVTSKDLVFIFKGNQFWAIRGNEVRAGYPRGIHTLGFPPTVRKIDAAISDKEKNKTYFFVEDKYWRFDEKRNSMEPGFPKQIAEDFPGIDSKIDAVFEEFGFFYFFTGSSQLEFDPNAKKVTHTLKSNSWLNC
Another experiment has as its target Neutrophil collagenase (Homo sapiens, UniProt P22894). The experiment in a line: Binding affinity for human Matrix metalloprotease-8.
Experiment [2] deals with T1, Stromelysin-1. The experiment is described as §1. The source holds these as a separate data set.
Target sequence in this assay (P08254 whole entry): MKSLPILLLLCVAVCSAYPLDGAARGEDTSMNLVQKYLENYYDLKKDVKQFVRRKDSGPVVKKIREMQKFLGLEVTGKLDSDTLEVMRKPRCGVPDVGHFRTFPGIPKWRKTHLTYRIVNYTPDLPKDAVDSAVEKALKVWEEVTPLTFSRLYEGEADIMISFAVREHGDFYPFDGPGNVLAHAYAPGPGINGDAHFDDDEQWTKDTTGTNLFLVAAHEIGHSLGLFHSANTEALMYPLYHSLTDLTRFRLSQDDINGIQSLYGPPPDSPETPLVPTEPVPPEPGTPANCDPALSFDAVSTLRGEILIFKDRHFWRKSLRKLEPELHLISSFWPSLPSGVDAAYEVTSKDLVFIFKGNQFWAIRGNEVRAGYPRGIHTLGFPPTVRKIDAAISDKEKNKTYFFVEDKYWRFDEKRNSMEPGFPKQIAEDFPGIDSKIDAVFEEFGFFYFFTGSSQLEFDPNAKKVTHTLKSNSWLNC

SMILES strings stand for the structures.

Sequence of Neutrophil collagenase (P22894 whole entry): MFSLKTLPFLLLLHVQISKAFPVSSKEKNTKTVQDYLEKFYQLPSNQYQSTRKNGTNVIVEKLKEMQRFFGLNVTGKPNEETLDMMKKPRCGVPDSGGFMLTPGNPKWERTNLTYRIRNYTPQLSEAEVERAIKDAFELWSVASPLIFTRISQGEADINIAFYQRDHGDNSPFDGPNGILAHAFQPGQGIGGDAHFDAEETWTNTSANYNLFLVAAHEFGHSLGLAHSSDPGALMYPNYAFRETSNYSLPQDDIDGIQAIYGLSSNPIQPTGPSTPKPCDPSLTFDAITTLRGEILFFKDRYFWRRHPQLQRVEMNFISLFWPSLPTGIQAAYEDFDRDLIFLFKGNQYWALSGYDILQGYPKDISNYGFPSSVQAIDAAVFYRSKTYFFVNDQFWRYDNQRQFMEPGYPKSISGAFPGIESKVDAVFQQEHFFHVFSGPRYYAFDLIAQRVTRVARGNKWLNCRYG

Turning to `O=C(O)[C@H]1Cc2ccccc2CC1S(=O)(=O)c1ccc(F)cc1` (some centres not stated), the Concentration on Stromelysin-1 [1] is 400 nM.

The term IC50 denotes the concentration needed to halve the response being measured. A higher IC50 goes with weaker potency. In the case of `O=C(O)[C@H]1Cc2ccccc2CC1S(=O)(=O)c1ccc(-c2ccccc2)cc1` (some centres not stated), the 50% inhibitory concentration (IC50) on Neutrophil collagenase turned out to be 0.01 µM; at Stromelysin-1 [2], 0.5 µM.

Turning to `O=C(O)[C@H]1Cc2ccccc2CC1S(=O)(=O)c1ccc(Cl)cc1` (some centres not stated), the Concentration on Stromelysin-1 [1] came out at 100 nM.

The molecule `N#Cc1ccc(-c2ccc(S(=O)(=O)C3Cc4ccccc4C[C@@H]3C(=O)O)cc2)cc1` (some centres not stated) had a Concentration at Stromelysin-1 [1] of 1000 nM.

With `O=C(O)[C@H]1Cc2ccccc2CC1S(=O)(=O)c1ccc(Oc2ccccc2)cc1` (some centres not stated), the Concentration on Stromelysin-1 [1] was 200 nM.

In the case of `O=C(O)[C@H]1Cc2ccccc2CC1S(=O)(=O)c1ccc(CCc2ccccc2)cc1` (some centres not stated), at Stromelysin-1 [1], the Concentration was found to be 50 nM.

The record behind these values is ChEMBL document CHEMBL1142054, “QSAR-by-NMR: quantitative insights into structural determinants for binding affinity by analysis of 1H/15N chemical shift differences in MMP-3 ligands” (Bioorg Med Chem Lett, 2005).
